One test deals with T1, CB1 receptor (Homo sapiens, UniProt P21554).
T1 construct: purchased
As to the kind of experiment: Competition binding assay for cannabinoid CB1 affinity (3H-CP55,940 displacement, membranes). The note with it: membranes from cells expressing the receptor, 0.5 nM 3H-CP55,940; Ki by Cheng and Prusoff. The protocol:
(§1) Competition binding assays for cannabinoid CB1 and CB2 affinity were performed by incubating commercially purchased membranes prepared from cells expressing each receptor subtype (8 μg pro) with 0.5 nM ^3H-CP55,940, a non-selective cannabinoid agonist, along with concentrations of drug ranging from 0.0001-3 μM in Buffer A (5 mM MgCl2, 2.5 mM EDTA and […] BSA). Non-specific binding was defined in the presence of 10 μM CP55,940. For saturation studies, concentrations of ^3H-CP55,940 ranging from 0.1-5 nM were incubated with membranes in the presence and absence of 10 μM CP55,940. Assays were terminated after incubation for 1½ hours by rapid filtration onto 0.3% polyethylenamine treated GF/C filterplates using a BRANDEL cell harvester. The plates were dried and MICROSCINT scintillation cocktail was added, after which the bound radioactivity was quantified using a TOPCOUNT scintillation counter.
(§2) The dissociation constant (Kd) of ^3H-CP55,940 at the CB1 and CB2 receptor were determined by plotting specific binding at each concentration of radioligand, and analysis by non-linear regression. For competition studies, the concentration of each drug that inhibited 50 percent of ^3H-CP55,940 binding (IC50) was determined by non-linear regression analysis of the radioligand displacement curves. Affinity constants (Ki) were calculated using the equation derived by Cheng and Prusoff (1973), defined as: IC50/1+[conc. ligand/Kd].

In another test the target is T2, CB2 receptor (Homo sapiens, UniProt P34972).
T2 construct: purchased
As to the kind of experiment: Competition binding assay for cannabinoid CB2 affinity (3H-CP55,940 displacement, membranes). The note with it: membranes from cells expressing the receptor, 0.5 nM 3H-CP55,940; Ki by Cheng and Prusoff. The method, then:
as §1, §2

The structures appear in SMILES notation.

T1 sequence (P21554 whole entry): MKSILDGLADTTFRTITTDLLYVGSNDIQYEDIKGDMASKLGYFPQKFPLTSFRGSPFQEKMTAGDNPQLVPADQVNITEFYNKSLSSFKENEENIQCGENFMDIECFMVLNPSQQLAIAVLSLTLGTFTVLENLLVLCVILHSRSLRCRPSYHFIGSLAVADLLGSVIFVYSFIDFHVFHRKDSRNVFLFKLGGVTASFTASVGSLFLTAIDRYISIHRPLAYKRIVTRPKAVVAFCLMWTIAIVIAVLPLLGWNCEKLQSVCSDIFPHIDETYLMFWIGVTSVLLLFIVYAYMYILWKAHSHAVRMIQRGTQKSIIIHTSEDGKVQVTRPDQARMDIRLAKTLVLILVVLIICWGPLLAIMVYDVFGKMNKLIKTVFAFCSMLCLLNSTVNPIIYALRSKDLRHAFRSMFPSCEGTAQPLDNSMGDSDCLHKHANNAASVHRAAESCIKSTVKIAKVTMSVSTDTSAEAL
T2 sequence (P34972 whole entry): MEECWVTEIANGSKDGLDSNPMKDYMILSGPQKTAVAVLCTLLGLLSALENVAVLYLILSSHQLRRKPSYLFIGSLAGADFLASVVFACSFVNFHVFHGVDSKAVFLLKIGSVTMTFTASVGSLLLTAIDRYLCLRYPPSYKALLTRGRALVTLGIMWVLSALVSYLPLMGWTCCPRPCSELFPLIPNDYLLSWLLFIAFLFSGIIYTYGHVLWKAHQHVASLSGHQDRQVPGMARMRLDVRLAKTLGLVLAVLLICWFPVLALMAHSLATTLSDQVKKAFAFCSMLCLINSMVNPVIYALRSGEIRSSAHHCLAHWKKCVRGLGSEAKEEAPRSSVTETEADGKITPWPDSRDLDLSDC

In the case of `N#Cc1ccc(OC[C@@H]2C[C@H](c3ccc(Cl)cc3)[C@H](c3ccc(Cl)cc3Cl)C2)cc1` [Compound 18], the Ki on CB1 receptor was 1.86 nM; on CB2 receptor, over 1500 nM.
For `N#Cc1ccc(NC[C@@H]2C[C@H](c3ccc(Cl)cc3)[C@H](c3ccc(Cl)cc3Cl)C2)cc1` [Compound 15], the results for the Ki on CB1 receptor and at CB2 receptor were 1 nM and over 1500 nM, respectively.
As to `Fc1ccc(OC[C@@H]2C[C@H](c3ccc(Cl)cc3)[C@H](c3ccc(Cl)cc3Cl)C2)cc1F` [Compound 17], the inhibition constant (Ki) on CB1 receptor is 12.5 nM; on CB2 receptor, over 1800 nM.
For the compound `N#Cc1ccc(NC[C@H]2C[C@H](c3ccc(Cl)cc3)[C@H](c3ccc(Cl)cc3Cl)C2)cc1` [Compound 16], the Ki on CB1 receptor and at CB2 receptor was over 1500 nM in each case.
With `N#Cc1ccc(CNC[C@@H]2C[C@H](c3ccc(Cl)cc3)[C@H](c3ccc(Cl)cc3Cl)C2)cc1` [Compound 14], the Ki at CB1 receptor was 12.7 nM; at CB2 receptor, over 1800 nM.

(Values after patent US20070254952A1, “CANNABINOID RECEPTOR MODULATORS” (priority 2006, published 2007).)
